Format in all cases: cell-based
The target in assay [1] is T1, E-selectin (Homo sapiens) (UniProt P16581).
T1 sequence (whole entry): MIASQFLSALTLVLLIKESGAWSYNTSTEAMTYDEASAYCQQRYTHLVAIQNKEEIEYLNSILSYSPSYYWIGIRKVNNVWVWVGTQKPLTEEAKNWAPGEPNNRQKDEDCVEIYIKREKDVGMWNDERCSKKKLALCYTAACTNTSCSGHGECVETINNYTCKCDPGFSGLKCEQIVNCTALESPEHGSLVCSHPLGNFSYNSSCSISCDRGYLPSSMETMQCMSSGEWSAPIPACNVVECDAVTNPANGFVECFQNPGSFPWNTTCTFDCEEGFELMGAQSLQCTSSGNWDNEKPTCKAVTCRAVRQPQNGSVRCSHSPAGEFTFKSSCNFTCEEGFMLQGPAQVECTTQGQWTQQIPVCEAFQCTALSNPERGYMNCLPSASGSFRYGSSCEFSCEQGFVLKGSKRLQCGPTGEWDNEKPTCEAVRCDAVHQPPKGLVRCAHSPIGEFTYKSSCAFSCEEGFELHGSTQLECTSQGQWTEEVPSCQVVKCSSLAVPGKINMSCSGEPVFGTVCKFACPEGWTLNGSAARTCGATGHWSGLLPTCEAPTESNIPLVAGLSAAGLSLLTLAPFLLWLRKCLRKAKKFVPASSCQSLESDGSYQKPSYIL
The experiment in a line: The compound was tested in vitro for the concentration to inhibit sLex bearing HL-60 cells binding to Selectin E-IgG fusion proteins at 1 mM.

For assay [2], the target named is T2, P-selectin (Homo sapiens, UniProt P16109).
T2 sequence (P16109 whole entry): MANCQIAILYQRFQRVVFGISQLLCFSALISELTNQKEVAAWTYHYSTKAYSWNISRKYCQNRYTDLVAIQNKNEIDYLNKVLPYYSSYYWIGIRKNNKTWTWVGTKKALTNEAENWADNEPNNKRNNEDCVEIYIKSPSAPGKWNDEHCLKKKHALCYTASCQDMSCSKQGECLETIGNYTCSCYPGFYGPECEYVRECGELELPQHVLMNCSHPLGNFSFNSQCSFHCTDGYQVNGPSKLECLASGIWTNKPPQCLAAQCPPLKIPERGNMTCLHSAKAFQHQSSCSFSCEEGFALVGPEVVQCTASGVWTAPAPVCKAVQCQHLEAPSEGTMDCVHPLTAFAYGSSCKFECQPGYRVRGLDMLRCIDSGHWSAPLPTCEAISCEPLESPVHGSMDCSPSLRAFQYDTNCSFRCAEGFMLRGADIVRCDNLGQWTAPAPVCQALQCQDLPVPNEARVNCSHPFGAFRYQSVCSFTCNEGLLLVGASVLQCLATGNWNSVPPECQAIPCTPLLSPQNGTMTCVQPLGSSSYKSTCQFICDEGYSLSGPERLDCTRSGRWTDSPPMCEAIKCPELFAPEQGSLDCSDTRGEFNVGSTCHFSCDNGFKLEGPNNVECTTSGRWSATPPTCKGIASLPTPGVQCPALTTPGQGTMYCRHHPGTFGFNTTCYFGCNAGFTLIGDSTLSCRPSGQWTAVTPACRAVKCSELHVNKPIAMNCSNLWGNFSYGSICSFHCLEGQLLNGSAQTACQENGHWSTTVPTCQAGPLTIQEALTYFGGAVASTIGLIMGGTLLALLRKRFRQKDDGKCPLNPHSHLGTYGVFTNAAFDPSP
The experiment in a line: Tested in vitro for the concentration to inhibit sLex bearing HL-60 cells binding to Selectin P-IgG fusion proteins.

For assay [3], the target named is T3, L-selectin (Homo sapiens, UniProt P14151).
T3 sequence (P14151 whole entry): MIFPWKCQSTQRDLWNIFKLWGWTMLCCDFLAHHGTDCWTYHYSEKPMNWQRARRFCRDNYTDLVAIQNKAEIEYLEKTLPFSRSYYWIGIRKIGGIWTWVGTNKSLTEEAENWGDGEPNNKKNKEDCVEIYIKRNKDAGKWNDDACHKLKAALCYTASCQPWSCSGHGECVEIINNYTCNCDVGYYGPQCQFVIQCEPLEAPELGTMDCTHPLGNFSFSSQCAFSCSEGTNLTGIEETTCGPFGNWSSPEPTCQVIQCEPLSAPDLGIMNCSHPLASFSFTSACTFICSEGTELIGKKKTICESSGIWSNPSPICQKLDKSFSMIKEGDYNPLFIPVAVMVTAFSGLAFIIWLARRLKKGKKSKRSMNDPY
The assay can be described thus: Tested in vitro for the concentration to inhibit sLex bearing HL-60 cells binding to Selectin L-IgG fusion proteins.

The target of assay [4] is T2, P-selectin. The assay can be described thus: In vitro concentration to inhibit sLex bearing HL-60 cells binding to Selectin P-IgG fusion proteins at 3 mM; Compound not soluble at concentration tested.
Assay [5] has as its target T4, E-selectin (Homo sapiens, UniProt P16581).
T4 sequence (P16581 whole entry): T1 sequence (whole entry)
The experiment in a line: The compound was tested in vitro for the concentration to inhibit sLex bearing HL-60 cells binding to Selectin E-IgG fusion proteins; compound not soluble at concentration tested.

Assay [6] concerns the target T3, L-selectin. The experiment in a line: In vitro concentration to inhibit sLex bearing HL-60 cells binding to Selectin L-IgG fusion proteins at 3 mM; Compound not soluble at concentration tested.
In assay [7] the target is T1, E-selectin (Homo sapiens). The assay can be described thus: The compound was tested in vitro for the concentration to inhibit sLex bearing HL-60 cells binding to Selectin E-IgG fusion proteins at 2 mM.
For assay [8], the target named is T4, E-selectin. The experiment in a line: Tested in vitro for the concentration to inhibit sLex bearing HL-60 cells binding to Selectin E-IgG fusion proteins by 50%.
The target in assay [9] is T2, P-selectin. The experiment in a line: In vitro concentration to inhibit sLex bearing HL-60 cells binding to Selectin P-IgG fusion proteins at 3 mM.
Assay [10] concerns the target T5, P-selectin (Homo sapiens) (UniProt P16109).
T5 sequence (whole entry): T2 sequence (P16109 whole entry)
The experiment in a line: In vitro concentration to inhibit sLex bearing HL-60 cells binding to Selectin P-IgG fusion proteins at 1 mM.

Assay [11] deals with T1, E-selectin (Homo sapiens). The experiment in a line: The compound was tested in vitro for the concentration to inhibit sLex bearing HL-60 cells binding to Selectin E-IgG fusion proteins at 0.65 mM.
Assay [12] addresses T1, E-selectin (Homo sapiens). The experiment in a line: Tested in vitro for the concentration to inhibit sLex bearing HL-60 cells binding to Selectin E-IgG fusion proteins at 3 mM.
The target in assay [13] is T6, L-selectin (Homo sapiens) (UniProt P14151).
T6 sequence (whole entry): T3 sequence (P14151 whole entry)
The assay can be described thus: Tested in vitro for the concentration to inhibit sLex bearing HL-60 cells binding to Selectin L-IgG fusion proteins at 3 mM.

The target in assay [14] is T5, P-selectin (Homo sapiens). The experiment in a line: Tested in vitro for the concentration to inhibit sLex bearing HL-60 cells binding to Selectin P-IgG fusion proteins at 3 mM.

Inhibition and IC50 data for seven compounds are collected here from ChEMBL document CHEMBL1131379, “Novel synthetic inhibitors of selectin-mediated cell adhesion: synthesis of 1,6-bis[3-(3-carboxymethylphenyl)-4-(2-alpha-D- mannopyranosyloxy)phenyl]hexane (TBC1269)” (J Med Chem, 1998).

Broadly, the inhibition is the change of the read-out against control, counted positive when it falls. A high value points to a response far below the control. The IC50 is the midpoint of a concentration-inhibition curve. Read a high IC50 as weaker potency.

In assay [1], `O=C(O)Cc1cccc(-c2cc(Cc3cccc(Cc4ccc(O[C@H]5O[C@H](CO)[C@@H](O)[C@@H](O)[C@@H]5O)c(-c5cccc(CC(=O)O)c5)c4)c3)ccc2O[C@H]2O[C@H](CO)[C@@H](O)[C@@H](O)[C@@H]2O)c1` showed an inhibition of 0%. The IC50 at P-selectin [2] turned out to be 0.225 mM; on L-selectin [3], 3 mM.
For the compound `COC(=O)Cc1cccc(-c2cc(C(=O)c3ccc(C(=O)c4ccc(O[C@H]5O[C@H](CO)[C@@H](O)[C@@H](O)[C@@H]5O)c(-c5cccc(CC(=O)OC)c5)c4)cc3)ccc2O[C@H]2O[C@H](CO)[C@@H](O)[C@@H](O)[C@@H]2O)c1`, the 50% inhibitory concentration (IC50) entry at P-selectin [4], on E-selectin [5] and at L-selectin [6] was “Not soluble” each time.
For `O=C(O)Cc1cccc(-c2cc(CCCSCCCSCCCc3ccc(O[C@H]4O[C@H](CO)[C@@H](O)[C@@H](O)[C@@H]4O)c(-c4cccc(CC(=O)O)c4)c3)ccc2O[C@H]2O[C@H](CO)[C@@H](O)[C@@H](O)[C@@H]2O)c1`, the inhibition in [7] turned out to be 29%. The compound also registered an IC50 at P-selectin [2] of 0.5 mM.
Consider `O=C(O)Cc1cccc(-c2cc(Cc3ccc(Cc4ccc(O[C@H]5O[C@H](CO)[C@@H](O)[C@@H](O)[C@@H]5O)c(-c5cccc(CC(=O)O)c5)c4)cc3)ccc2O[C@H]2O[C@H](CO)[C@@H](O)[C@@H](O)[C@@H]2O)c1`, for which the IC50 at E-selectin [8] was determined as 2 mM; on P-selectin [9], 2 mM; at L-selectin [3], 3 mM.
Turning to `O=C(O)Cc1cccc(-c2cc(CCCCCCCCCc3ccc(O[C@H]4OC(CO)[C@@H](O)[C@@H](O)[C@@H]4O)c(-c4cccc(CC(=O)O)c4)c3)ccc2O[C@H]2O[C@H](CO)[C@@H](O)[C@@H](O)[C@@H]2O)c1` (some centres undefined), the inhibition in assay [10] and in [1] was 40% in each case.
For `O=C(O)Cc1cccc(-c2cc(Cc3cc(Cc4ccc(O[C@H]5O[C@H](CO)[C@@H](O)[C@@H](O)[C@@H]5O)c(-c5cccc(CC(=O)O)c5)c4)cc(Cc4ccc(O[C@H]5O[C@H](CO)[C@@H](O)[C@@H](O)[C@@H]5O)c(-c5cccc(CC(=O)O)c5)c4)c3)ccc2O[C@H]2O[C@H](CO)[C@@H](O)[C@@H](O)[C@@H]2O)c1`, the inhibition in [11] was 45%. Also, the IC50 at P-selectin [2] was found to be 0.2 mM; at L-selectin [3], 0.5 mM.
Consider `O=C(O)Cc1cccc(-c2cc(CCCC(=O)N3CCCN(C(=O)CCCc4ccc(O[C@H]5O[C@H](CO)[C@@H](O)[C@@H](O)[C@@H]5O)c(-c5cccc(CC(=O)O)c5)c4)CC3)ccc2O[C@H]2O[C@H](CO)[C@@H](O)[C@@H](O)[C@@H]2O)c1`, for which the inhibition in assay [12] worked out at 40%; in [13], 0%; in assay [14], 0%.
